≈ marks a conversion by molar mass, not a printed value.
Assay: physchem

Structure (SMILES)	solubility (pH 1.47, simulated gastric fluid)	solubility (pH 3.27, aqueous buffer)	solubility (pH 4.11, aqueous buffer)	solubility (pH 5.02, aqueous buffer)	solubility (pH 6.27, aqueous buffer)	solubility (0.1N HCl, pH 1, simulated gastric fluid)	solubility (aqueous solution, pH 6.3, aqueous buffer)
CC(C)CN(C[C@@H](OP(=O)([O-])[O-])[C@H](Cc1ccccc1)NC(=O)O[C@H]1CCOC1)S(=O)(=O)c1ccc(N)cc1.[Ca+2] [compound of formula (I), calcium (3S) tetrahydro-3-furanyl (1S,2R)-3-[[(4-aminophenyl)sulfonyl](isobutyl)amino]-1-benzyl-2-(phosphonooxy)propylcarbamate]	3200 µg/mL	61100 µg/mL	9410 µg/mL	3200 µg/mL	531 µg/mL		
CC(C)CN(C[C@@H](O)[C@H](Cc1ccccc1)NC(=O)O[C@H]1CCOC1)S(=O)(=O)c1ccc(N)cc1 (relative stereo) [amprenavir, [3S-[3R*(1R*,2S*)]]-[3-[[(4-aminophenyl)sulfonyl](2-methyl-propyl)amino]-2-hydroxy-1-phenylmethyl)propyl]-tetrahydro-3-furanyl ester, reference compound]						290 µg/mL (≈ 574 µM)	95 µg/mL (≈ 188 µM)

— patent US6514953B1, “Calcium (3S) tetrahydro-3-furanyl(1S,2R)-3-[[(4-aminophenyl)sulfonyl](isobutyl)amino]-1-benzyl-2-(phosphonooxy)propylcarbamate” (SmithKline Beecham Corporation, priority 1998, dated 2003)
